Experimental findings from US20060189581A1, “Compounds and methods for treating transplant rejection” (AtheroGenics, Inc., priority 1997, published 2006) are described below.

Data set [1] concerns ACI rat aorta transplanted into Lewis rat (graft arteriosclerosis). As to the kind of experiment: Rat aortic allograft model (graft arteriosclerosis). Type of data set: in vivo. The method, then: Compound A was evaluated for graft arteriosclerosis resulting from aortic heterotropic transplantation. This is a model of graft arteriopathy which is the major obstacle to long term success of solid organ transplantation.
Donor descending aortas from ACI rats were heterotypically transplanted into Lewis rat abdomens in end-to-end fashion with minimal ischemic time. 55 rats were assigned to five groups as follows:
(§1) Compound A was administered subcutaneously to recipient animals three days prior to the surgery and once daily for 90 days thereafter. […] Thereafter, the dose was reduced to 30 mg/kg/d for 6 days and then further reduced to 5 mg/kg/d for the remainder of the study.
(§2) On day 90, the allograft segment was removed, fixed in 10% buffered formalin and paraffin embedded. Sections were stained with von Geisson's elastic stain, and intima-to-media area (IM) ratio and percent luminal narrowing (% LN) were assessed by digital morphometry (See FIGS. 1 and 2). Blood was collected at regular intervals throughout the study and plasma evaluated for compound levels (See FIG. 3).

Data set [2] in a line: Plasma compound levels in the rat aortic allograft study. It counts as in vivo. The settings on record: Lewis, subcutaneous, after 90 days of dosing, read-out: trough plasma levels. The procedure: as §1, §2

Entries after “also recorded” stand apart in the source; their conditions may differ. Read-outs that look alike come from different tables or passages of the source.

`CC(C)(Sc1cc(C(C)(C)C)c(O)c(C(C)(C)C)c1)Sc1cc(C(C)(C)C)c(OCCCC(=O)O)c(C(C)(C)C)c1` [Compound A, 4-[4-[[1-[[3,5-bis(1,1-dimethylethyl)-4-hydroxyphenyl]thio]-1-methylethyl]thio]-2,6-bis(1,1-dimethylethyl)phenoxy]butyric acid]: in data set [1] (20 mg and 40/30/5 mg/kg/d doses, day 90), the “IM ratio and % LN compared to the vehicle group” value is recorded as “significantly lower”. Further, in data set [1] (20 mg/kg/d subcutaneously), the “efficacy and gross toxicity” value is listed as “efficacious without grossly discernable toxic side effects”. Moreover, in data set [1] (40 mg/kg/d subcutaneously, until the dose was reduced), the “adverse findings (body weight, skin)” value is “failure to gain weight and skin irritation; also recorded: initially lost weight”. Further, the “inhibition of aortic neointimal growth” value in data set [1] (10, 20 and 40/30/5 mg/kg/d subcutaneously, 90 days) is “dose-dependent inhibition”. Moreover, the tolerability of treatment result in data set [1] (10 and 20 mg/kg/d subcutaneously, animals regained weight post surgery) is “well tolerated”. Moreover, the “percent inhibition of the % LN (percent luminal narrowing)” value in data set [1] (40/30/5 mg/kg/d subcutaneously, day 90, compared to vehicle control) was found to be 52%. Besides, the concentration at 90 days in data set [2] (10 mg/kg/d subcutaneously) is 10 µM; in data set [2] (20 mg/kg/d subcutaneously) it was 18 µM; in data set [2] (40/30/5 mg/kg/d subcutaneously), 28 µM.
